Laboratory results published in EP1746090A1, “Sustituted pyrazoline compounds, having predetermined stereochemistry, for reducing triglycerides in blood” (Laboratorios del Dr. Esteve S.A., priority 2005, dated 2007).

System: male mice B6 Lep ob/ob
Test: In-vivo testing for regulation of triglycerides in blood plasma (obese mice on high fat diet)
Conditions: obese mice fed with high fat diet for 7 weeks; 30 mg/kg/day, p.o., 14 days; whole blood, test strips "Lipid panel"
Excerpt: This effect is probed in obese mice fed with high fat diet. In the following paragraphs the method of this study is described.
The study is done using six weeks old male mice B6 Lep ob/ob, obtained from Charles River (France). Mice are divided in 3 groups: I (control), II (vehicle), III (example 0).
The animals of the group I receive the standard diet (D-12450B, Research Diets, NJ, USA).
The animals of the groups II and III are fed with a High Fat Diet (D-12492, Research Diets, NJ, USA), in both cases for 7 weeks (References 1 and 2).
The animals of the groups III are fed with a High Fat Diet (D-12492, Research Diets, NJ, USA), in both cases for 7 weeks (References 1 and 2).
At the end of the feeding period of 7 weeks, the treatment period (14 days) is started: Group II mice receive the vehicle (10 ml/kg/day, po, of the aqueous solution of acacia gum, 5% W/V). Group III is administered with 30 mg/kg/day, p.o., of the inventive compound (R)-5-(4-chlorophenyl)-1-(2,4-dichlorophenyl)-4,5-dihydro-pyrazole-3-carboxylic acid according to Example 0. […] The three groups of mice have the same diet than in the previous period.
At the end of the 14 days period of treatment, the blood levels of triglicerides of the animals are determined. […]

(S)-5-(4-chlorophenyl)-1-(2,4-dichlorophenyl)-4,5-dihydro-pyrazole-3-carboxylic acid [example 0]
blood levels of triglicerides: inhibitor of high blood levels of triglicerides
